Assay results published in patent publication US6423745B1, “Pyrethroid compound and composition for controlling pest containing the same as an active ingredient” (Sumitomo Chemical Co., Ltd., priority 1998, dated 2002).

How the values were obtained:
[1] = test system: common mosquito (Culex pipiens pallens); test: Effect of a mosquito coil on common mosquito (knock-down); assay type: in vivo; set-up: key: Excellent: All the insects were knocked down (the total in the two replications).; Good: 1 to 3 insects were not knocked down (ditto).; Mediocre: 4 to 6 insects were not knocked down (ditto).; Bad: 7 or more insects were not knocked down (ditto); settings: 0.3 g coil burnt 30 seconds in 0.34 m^3 glass chamber, female adults counted after fifteen minutes
From the text: Effect of a mosquito coil on common mosquito (Culex pipiens pallens)
A base material for mosquito coil (obtained by stirring a 4:3:3 mixture of Tabu powder, Pyrethrum marc and wood powder, adding water thereto, thoroughly kneading the resulting mixture, and molding and drying the kneaded mixture) was uniformly impregnated with a solution of the present compound in acetone so that the material contains a predetermined amount of the compound. The resultant base material was air-dried to obtain a mosquito coil.
Ten female adult common mosquitoes were released in a glass chamber (70 cm cube, capacity: 0.34 m^3). 0.3 Gram of a mosquito coil containing the present compound prepared according to the procedure described above was set on a holder in the center of bottom of the chamber, ignited at one end thereof, and taken out of the chamber after 30 seconds of combustion. The knocked-down common mosquitoes were counted in fifteen minutes after the setting of the coil.
(§1) The same test procedure was repeated for (S)-2-methyl-4-oxo-3-(2-propynyl)-cyclopent-2-enyl (1RS)-cis-3-(2,2-dichlorovinyl)-2,2-dimethylcyclopropanecarboxylate (hereinafter referred to as reference compound A).
In Table 1, the knocking-down activity is indicated according to the following criterion: […]

[2] = test system: American cockroach (Periplaneta americana); test: Insecticidal activity against American cockroach (topical application); assay type: in vivo; settings: 72 h, read-out: Insecticidal activity against American cockroach (LD50)
Method: Insecticidal Activity Against American Cockroach (Periplaneta americana) and Toxicity to Rat Insecticidal Activity Against American Cockroach
Each of the present compound and reference compound A were diluted with acetone to prepare dilutions of prescribed concentrations. Each dilution was applied on the sterna of female adult American cockroaches with a micro-applicator in a volume of 1.0 μl per insect. Then, the insects were given water and diet. After 72 hours, the dead and alive were counted. From the mortality, LD50 (mg/kg) value was determined.

[3] = test system: common mosquito (Culex pipiens pallens); test: Effect of spraying of an oil formulation on common mosquito (knock-down); assay type: in vivo; settings: 0.7 ml sprayed in 0.34 m^3 glass chamber, female adults counted after two minutes
From the text: Effect of spraying of an oil formulation on common mosquito (Culex pipiens pallens)
Ten female adult common mosquitoes were released in a glass chamber (70 cm cube, capacity: 0.34 m^3). 0.7 Milliliter of an oil formulation containing a predetermined concentration (shown in Table 2) of the present compound prepared according to Formulation Example 7 was sprayed into the chamber through a small side window of the chamber with a spray gun. The knocked-down common mosquitoes were counted in two minutes after the spraying.
as §1
In Table 2, the knocking-down activity is indicated according to the following criterion: […]

Toxicity to rat = settings: in vivo, male rats, dilution in corn oil, 10 ml/kg, mortality after 7 days
Method: Each of the present compound and reference compound A was diluted with corn oil to predetermined concentrations. Each of the dilutions thus prepared was administered to male rats in an amount of 10 ml/kg. The rats were given water and diet. After 7 days, the dead and alive were counted for mortality. From the mortality, LD50 (mg/kg) value was determined.

[4] = Calculation of safety factor (rat LD50 / American cockroach LD50); settings: [Toxicity to rat (LD50 value)]/[Insecticidal activity against American cockroach (LD50 value)]
Method: Calculation of Safety Factor
The safety factor was calculated from the insecticidal activity against American cockroach and the toxicity to rat according to the following equation.
Safety factor=[Toxicity to rat (LD50 value)]/[Insecticidal activity against American cockroach (LD50 value)]

Row | Structure (SMILES) | Knocking-down activity ([1]; concentration 0.5 % W/W) | Knocking-down activity ([1]; concentration 1.0 % W/W) | LD50 [2] [mg/kg] | Knocking-down activity ([3]; concentration 0.025 % W/W) | Knocking-down activity ([3]; concentration 0.05 % W/W) | LD50 at 7 days (Toxicity to rat) [mg/kg] | Safety factor [4]
1 | C#CCC1=C(C)[C@@H](OC(=O)[C@@H]2[C@H](C=C(Cl)Cl)C2(C)C)CC1=O (racemic) [A, (S)-2-methyl-4-oxo-3-(2-propynyl)-cyclopent-2-enyl (1RS)-cis-3-(2,2-dichlorovinyl)-2,2-dimethylcyclopropanecarboxylate] | Bad (7 or more insects were not knocked down (ditto).) | Bad (7 or more insects were not knocked down (ditto).) | 4.4 | Bad (7 or more insects were not knocked down (ditto).) | Bad (7 or more insects were not knocked down (ditto).) | < 100 | <23
2 | C#CCC1=C(C)[C@@H](OC(=O)[C@@H]2[C@@H](C=C(Cl)Cl)C2(C)C)CC1=O [Present compound, (S)-2-methyl-4-oxo-3-(2-propynyl)-cyclopent-2-enyl (1R)-trans-3-(2,2-dichlorovinyl)-2,2-dimethylcyclopropanecarboxylate] | Excellent | – | 0.72 | Good (3 or less insects were not knocked down (the total in the two replications).) | – | > 300 | >420
